Experimental data taken from the supplement of paper PMC4862054.

test system: HDQ-P1; assay: normalised response (% of control), CellTox Green; higher = less cell death (100 = DMSO, 0 = benzethonium chloride kill control); details: incubation time: 72 h
In short: (§1)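 A 20 µl suspension of breast cancer cells was seeded into each well of 384-well plates containing compound at 5 concentrations in 10-fold steps over a compound-specific 10,000-fold range. After 72 h incubation, CellTox Green fluorescence (485/520 nm) was read first, and CellTiter-Glo luminescence was read after 10 min at room temperature. Each plate was normalised against 0.1 % DMSO (100) and a positive kill control (0), and each value is the normalised signal at one concentration.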

Compound	normalised response [%]
O=C(CCCCCCC(=O)Nc1ccc([C@H]2O[C@@H](CSc3nc(-c4ccccc4)c(-c4ccccc4)o3)C[C@@H](c3ccc(CO)cc3)O2)cc1)NO [Tubacin] (10000 nM)	102
NC(=O)Nc1cc(-c2cccc(F)c2)sc1C(=O)N[C@H]1CCCNC1 [AZD7762] (1000 nM)	90.3
CCCCCCCCCCCCCCCCCCOP(=O)([O-])OC1CC[N+](C)(C)CC1 [Perifosine] (2500 nM)	109

test system: BT-549; assay: as above; details: incubation time: 72 h
In short: as §1

Compound	normalised response [%]
O=C(CCCCCCC(=O)Nc1ccc([C@H]2O[C@@H](CSc3nc(-c4ccccc4)c(-c4ccccc4)o3)C[C@@H](c3ccc(CO)cc3)O2)cc1)NO [Tubacin] (10000 nM)	71.7
NC(=O)Nc1cc(-c2cccc(F)c2)sc1C(=O)N[C@H]1CCCNC1 [AZD7762] (1000 nM)	94.3
CCCCCCCCCCCCCCCCCCOP(=O)([O-])OC1CC[N+](C)(C)CC1 [Perifosine] (2500 nM)	56.7

test system: DU-4475; assay: normalised viability (% of control), CellTiter-Blue; higher = more viable cells (about 100 = DMSO control); details: incubation time: 72 h
Protocol: (§2)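 DSRT, CellTiter-Blue viability, 72 h incubation. Signal is normalised to DMSO and benzethonium chloride controls. Value is the normalised response at dose 6.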

Compound	normalised viability [%]
O=P1(NCCCl)OCCCN1CCCl (centres undefined) [Ifosfamide] (300 nM)	78.1
NC(=O)Nc1cc(-c2cccc(F)c2)sc1C(=O)N[C@H]1CCCNC1 [AZD 7762] (30 nM)	99.8
COc1cc2nccc(Oc3ccc(NC(=O)C4(C(=O)Nc5ccc(F)cc5)CC4)cc3)c2cc1OC [Cabozantinib] (30 nM)	96.1
N[C@@H](CSC(c1ccccc1)(c1ccccc1)c1ccccc1)C(=O)O [S-trityl-L-cysteine] (1200 nM)	97.8
Oc1nc(-c2ccc(C(F)(F)F)cc2)nc2c1CSCC2 [XAV-939] (300 nM)	116
CC(=O)Nc1ccc(C(=O)Nc2ccccc2N)cc1 [CI-994] (30 nM)	85.6
Cc1ccc(-n2nc(C(C)(C)C)cc2NC(=O)Nc2ccc(OCCN3CCOCC3)c3ccccc23)cc1 [Doramapimod] (300 nM)	96.3
C[C@@H](Oc1cc(-c2cnn(C3CCNCC3)c2)cnc1N)c1c(Cl)ccc(F)c1Cl [Crizotinib] (300 nM)	112
Cn1c(Nc2ccc(C(F)(F)F)cc2)nc2cc(Oc3ccnc(-c4ncc(C(F)(F)F)[nH]4)c3)ccc21 [RAF265] (30 nM)	111
O=C1CCC(N2C(=O)c3ccccc3C2=O)C(=O)N1 (centres undefined) [Thalidomide] (300 nM)	99.6
CO[C@H]1/C=C\C=C(/C)C(=O)NC2=CC(=O)C(NCCN(C)C)=C(C[C@@H](C)C[C@H](OC)[C@H](O)[C@@H](C)/C=C(\C)[C@@H]1OC(N)=O)C2=O [Alvespimycin] (30 nM)	1.87
N.N.[Cl][Pt][Cl] [Cisplatin] (300 nM)	93.6
Clc1ccc(Nc2nnc(Cc3ccncc3)c3ccccc23)cc1 [Vatalanib] (300 nM)	95
CN(N=O)C(=O)N[C@@H](C=O)[C@@H](O)[C@H](O)[C@H](O)CO [Streptozocin] (300 nM)	97.2

test system: CAL-51; assay: as above; details: incubation time: 72 h
Protocol: as §2

Compound	normalised viability [%]
O=P1(NCCCl)OCCCN1CCCl (centres undefined) [Ifosfamide] (300 nM)	108
NC(=O)Nc1cc(-c2cccc(F)c2)sc1C(=O)N[C@H]1CCCNC1 [AZD 7762] (30 nM)	103
COc1cc2nccc(Oc3ccc(NC(=O)C4(C(=O)Nc5ccc(F)cc5)CC4)cc3)c2cc1OC [Cabozantinib] (30 nM)	102
N[C@@H](CSC(c1ccccc1)(c1ccccc1)c1ccccc1)C(=O)O [S-trityl-L-cysteine] (1200 nM)	78.5
Oc1nc(-c2ccc(C(F)(F)F)cc2)nc2c1CSCC2 [XAV-939] (300 nM)	99.3
CC(=O)Nc1ccc(C(=O)Nc2ccccc2N)cc1 [CI-994] (30 nM)	98.3
Cc1ccc(-n2nc(C(C)(C)C)cc2NC(=O)Nc2ccc(OCCN3CCOCC3)c3ccccc23)cc1 [Doramapimod] (300 nM)	107
C[C@@H](Oc1cc(-c2cnn(C3CCNCC3)c2)cnc1N)c1c(Cl)ccc(F)c1Cl [Crizotinib] (300 nM)	99.7
Cn1c(Nc2ccc(C(F)(F)F)cc2)nc2cc(Oc3ccnc(-c4ncc(C(F)(F)F)[nH]4)c3)ccc21 [RAF265] (30 nM)	89.8
O=C1CCC(N2C(=O)c3ccccc3C2=O)C(=O)N1 (centres undefined) [Thalidomide] (300 nM)	88.4
CO[C@H]1/C=C\C=C(/C)C(=O)NC2=CC(=O)C(NCCN(C)C)=C(C[C@@H](C)C[C@H](OC)[C@H](O)[C@@H](C)/C=C(\C)[C@@H]1OC(N)=O)C2=O [Alvespimycin] (30 nM)	63.5
N.N.[Cl][Pt][Cl] [Cisplatin] (300 nM)	108
Clc1ccc(Nc2nnc(Cc3ccncc3)c3ccccc23)cc1 [Vatalanib] (300 nM)	98.3
CN(N=O)C(=O)N[C@@H](C=O)[C@@H](O)[C@H](O)[C@H](O)CO [Streptozocin] (300 nM)	108

test system: CAL-85-1; assay: as above; details: incubation time: 72 h
Protocol: as §2

Compound	normalised viability [%]
O=P1(NCCCl)OCCCN1CCCl (centres undefined) [Ifosfamide] (300 nM)	97.1
NC(=O)Nc1cc(-c2cccc(F)c2)sc1C(=O)N[C@H]1CCCNC1 [AZD 7762] (30 nM)	99.5
COc1cc2nccc(Oc3ccc(NC(=O)C4(C(=O)Nc5ccc(F)cc5)CC4)cc3)c2cc1OC [Cabozantinib] (30 nM)	85.5
N[C@@H](CSC(c1ccccc1)(c1ccccc1)c1ccccc1)C(=O)O [S-trityl-L-cysteine] (1200 nM)	95.1
Oc1nc(-c2ccc(C(F)(F)F)cc2)nc2c1CSCC2 [XAV-939] (300 nM)	89.2
CC(=O)Nc1ccc(C(=O)Nc2ccccc2N)cc1 [CI-994] (30 nM)	104
Cc1ccc(-n2nc(C(C)(C)C)cc2NC(=O)Nc2ccc(OCCN3CCOCC3)c3ccccc23)cc1 [Doramapimod] (300 nM)	81.1
C[C@@H](Oc1cc(-c2cnn(C3CCNCC3)c2)cnc1N)c1c(Cl)ccc(F)c1Cl [Crizotinib] (300 nM)	92
Cn1c(Nc2ccc(C(F)(F)F)cc2)nc2cc(Oc3ccnc(-c4ncc(C(F)(F)F)[nH]4)c3)ccc21 [RAF265] (30 nM)	88.9
O=C1CCC(N2C(=O)c3ccccc3C2=O)C(=O)N1 (centres undefined) [Thalidomide] (300 nM)	105
CO[C@H]1/C=C\C=C(/C)C(=O)NC2=CC(=O)C(NCCN(C)C)=C(C[C@@H](C)C[C@H](OC)[C@H](O)[C@@H](C)/C=C(\C)[C@@H]1OC(N)=O)C2=O [Alvespimycin] (30 nM)	62.8
N.N.[Cl][Pt][Cl] [Cisplatin] (300 nM)	99.5
Clc1ccc(Nc2nnc(Cc3ccncc3)c3ccccc23)cc1 [Vatalanib] (300 nM)	94.6
CN(N=O)C(=O)N[C@@H](C=O)[C@@H](O)[C@H](O)[C@H](O)CO [Streptozocin] (300 nM)	106

test system: MDA-MB-453; assay: as above; details: incubation time: 72 h
Protocol: as §2

Compound	normalised viability [%]
O=P1(NCCCl)OCCCN1CCCl (centres undefined) [Ifosfamide] (300 nM)	110
